“And” between values parts separate entries of the source, which are not always exact repeats. Equal entries are not always repeated.
What was measured:
[1] = test system: NS-20Y (mouse neuroblastoma cells); assay: Activity on NS-20Y cells: appearance of neurites; format: cell-based
Summary of the method: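 Mouse neuroblastoma NS-20Y cells were grown in polyornithine-coated dishes in DMEM with 10 % FCS, 100 units/ml penicillin G sodium and 100 micrograms/ml streptomycin sulfate, at 37° C under 5 % carbon dioxide, and exposed to compound. Cells were fixed with 4 % glutaraldehyde, stained with 0.05 % methylene blue, and the fraction bearing neurites at least twice the cell's long diameter was counted microscopically.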

[2] = test system: neuro-2a (mouse neuroblastoma cells); assay: Action on neuro-2a: proportion of cells containing outgrown neurites; format: cell-based; conditions: mean ± S.D.
Summary of the method: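 Mouse neuro-2a cells at 1,000 cells/well in DMEM with 10% FCS were cultured one day at 37 °C, 5% CO2, then glutaraldehyde-fixed and methylene-blue-stained. The proportion of cells bearing a neurite at least twice the cell's long diameter was counted over >200 cells; up to 6 concentrations, triplicate runs.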

mice = assay: Acute toxicity on mice; format: in vivo; conditions: 24 hours after administration
Procedure: The acute toxicity of the compounds of the invention was examined by the following method.
Male ddy-strain 5-week old mice, 4-6- per group, were used as experimental animals. Each of the compounds was intraperitoneally (i.p.), and the toxicity of the compound was assessed 24 hours after the administration.

| Structure (SMILES) | Number of cells in which neurites appeared/total number of cells ([1]; 24 hours, 0.3 mM) | Number of cells in which neurites appeared/total number of cells ([1]; 48 hours, 0.1 mM) | Number of cells having neurites with a length at least two times the diameter of each cell/total number of cells ([2]; 0.03 mM) [%] | Number of cells having neurites with a length at least two times the diameter of each cell/total number of cells ([2]; 0.1 mM) | Number of cells having neurites with a length at least two times the diameter of each cell/total number of cells ([2]; 1 mM) [%] | Estimated LD50 (mice) | Number of cells having neurites with a length at least two times the diameter of each cell/total number of cells ([2]; 0.3 mM) [%] |
| --- | --- | --- | --- | --- | --- | --- | --- |
| CN(C(=O)c1ccc(Cl)cc1Cl)c1ccnc(N2CCC(c3ccccc3)CC2)n1.Cc1ccc(S(=O)(=O)O)cc1 [Compound 171-11] | 5/50 | 2/50 | 5.9 ± 0.9 | 36.8 ± 7.1% and 22.1 ± 2.3% | 31.7 ± 5.9 | > 1000 mg/kg, i.p. |  |
| CN(C(=O)c1ccccc1)c1ccnc(N2CCC(c3ccccc3)CC2)n1 [Compound 169] |  |  |  | 34.1 ± 5.7% |  | > 1000 mg/kg, i.p. | 16.6 ± 5.2 |
| COCC(=O)N(C)c1ccnc(N2CCC(c3ccccc3)CC2)n1.Cc1ccc(S(=O)(=O)O)cc1 [Compound 154-2] |  |  | 3.9 ± 0.6 | 8.9 ± 2.4% |  | 500-1000 mg/kg, i.p. |  |

Reference: patent US5147876A, “2,6-di,2,4,6-, 2,5,6-tri and 2,4,5,6-tetra-substituted pyrimidines, their pharmaceutically acceptable salts, pharmaceutical compositions containing same and their use in the treatment of neurological diseases” (Mitsui Petrochemical Industries, Ltd., priority 1988, dated 1992)
